Data reported in patent US5663196A, “Methods for treating neoplastic disorders” (Boston University, priority 1993, dated 1997).

Columns and labels:
[1] = tested on: CT26 cells (colon adenocarcinoma); assay: 3H-Thymidine Incorporation, CT26; assay type: cell-based; settings: Mus musculus, read-out: 3H-Thymidine Incorporation (DNA Synthesis) Inhibition (%)
Source text: (§1) 2) The ^3 H-Thymidine Incorporation Test as described by Ju, S. T., Dorf, M. E. J. Immunol. 1985, 134, 3722. This test was used for monitoring cellular proliferation by monitoring DNA synthesis. The results are expressed as percent ^3 H-thymidine incorporation relative to an untreated control:
(§2) [% ^3 H-thymidine incorporation]=[cpm agent treated cells]/[cpm
(§3) where cpm=counts per minute. Treatments resulting in [% ^3 H-thymidine incorporation] of <50% are considered active.
(§4) The ^3 H-thymidine incorporation assay therefore measures the amount of DNA synthesis when the cells are in the "S" phase of the cell cycle, and is used to assess cell proliferation. Cancer cells, which have a very rapid cell cycle turnover, normally incorporate large amounts of tritium (^3 H) unless inhibited by an exogenous agent. […] While the trypan blue dye exclusion test is an indicator of cell death, the ^3 H-thymidine incorporation test indicates a cytostatic status (not necessarily cytotoxic) of the cell. As previously noted, this latter test was the primary screen used to guide the isolation to the active agent.

[2] = tested on: BW8767 cells (BW resistant mutant); assay: 3H-Thymidine Incorporation, BW8767; assay type: cell-based; settings: Mus musculus, read-out: 3H-Thymidine Incorporation (DNA Synthesis) Inhibition (%)
Source text: as §1, §2, §3, §4
(§5) The final in vitro assays performed with the preferred purified active agent were intended to examine the scope of the activity in the trypan blue assay against a wider range of tumor cell lines (Tables 10 and 11). These cell lines included a […] lymphoma BW8767, a BW mutant which is more resistant than the BW cell lines used in other assays, as evidenced by the results in Tables 10 and 11.

[3] = tested on: CT26 colon adenocarcinoma cells; assay: Lung metastases of CT26 in BALB/C mice, 3rd study; assay type: in vivo; settings: day 5; 5 μg/g mouse
Method: The in vivo activity of the active agent was assessed against two tumor cell types injected into mice: CT26 and Ehrlich Ascites (EAT) tumor cell lines. The protocols of the "National Cancer Institute, Drug Research and Development Division of Cancer Treatment, Instruction 14, Screening Data Summary Interpretation and Outline of Current Screen" were followed.
In a subsequent experiment, mice that had been implanted with CT26 cells as above were treated on day 5 with the solid residue from the evaporation of CsA (100 μg/g mouse), and with the preferred purified active agent 11β,13-dihydrolactucin (5 μg/g mouse).

[4] = tested on: CT26 cells (colon adenocarcinoma); assay: Trypan Blue cell viability, CT26; assay type: cell-based; settings: Mus musculus, CT26, read-out: Trypan Blue Cell Viability (%)
Source text: (§6) 1) The Trypan Blue Dye Exclusion Test for monitoring ceil viability as described by Phillips, H. J., in Tissue Culture Methods and Applications; Kruse, P. F., Jr., Patterson, M. K., Eds.; Academic Press, New York, 1973, 406, and by Wu, Y. W., Chik, L. L., Knazek, R. A. Cancer Research 1989, 49, 3754. The results of this assay are expressed as a percentage of viable cells:
(§7) [% viable cells]=[no. of alive cells]/[total no. of cells]×100
(§8) where the total no. cells=dead cells+alive cells. The results are compared directly with an untreated control, which typically show a three-to-four-fold increase for cancer cells, and a two-fold increase for normal cells. Treatments resulting in [% viable cells] of <30% are considered cytotoxic. Therefore, the trypan blue dye exclusion test was used to assess the number of dead and alive cells using various cell lines upon treatment with the crude and purified agent. This test provides a simple clue to the acute or late onset of a cytotoxic response. Readings for this and all other in vitro assays were taken 48 hours after treatment with the unpurified agent, and also […] after treatment for the purified agent. Thus, the trypan blue dye exclusion assay functions to confirm whether or not the cells were viable at the time readings were taken for other bioassays.
as §5

[5] = tested on: RDM-4 cells (type T lymphoma); assay: Trypan Blue cell viability, RDM-4; assay type: cell-based; settings: Mus musculus, read-out: Trypan Blue Cell Viability (%)
Source text: as §6, §7, §8, §5

C7 cloned T-cells [6] = assay: 3H-Thymidine Incorporation, C7; assay type: cell-based; settings: Mus musculus, T-cell, read-out: 3H-Thymidine Incorporation (DNA Synthesis) Inhibition (%)
Source text: as §1, §2, §3, §4
(§9) Each of these three fractions were then tested in the trypan blue and ^3 H-thymidine incorporation assays along with the original CsA as a control, against the LS cell line, which was the most sensitive of the cancer lines (Tables 3 and 4). […] The results of the trypan blue and ^3 H-thymidine incorporation assays against the three cell lines are compiled in Tables 5a-5f.

[7] = tested on: BW8767 cells (BW resistant mutant); assay: Trypan Blue cell viability, BW8767; assay type: cell-based; settings: Mus musculus, read-out: Trypan Blue Cell Viability (%)
Source text: as §6, §7, §8, §5

[8] = tested on: EL-4 cells (type T lymphoma); assay: Trypan Blue cell viability, EL-4; assay type: cell-based; settings: Mus musculus, EL4, read-out: Trypan Blue Cell Viability (%)
Source text: as §6, §7, §8

C7 cloned T-cells [9] = assay: Trypan Blue cell viability, C7; assay type: cell-based; settings: Mus musculus, read-out: Trypan Blue Cell Viability (%)
Source text: as §6, §7, §8, §9

[10] = tested on: BW (BW5147) lymphoma cells; assay: 3H-Thymidine Incorporation, BW (BW5147); assay type: cell-based, mouse
Source text: as §1, §2, §3
The ^3 H-thymidine incorporation assay therefore measures the amount of DNA synthesis when the cells are in the "S" phase of the cell cycle, and is used to assess cell proliferation. […]
With the preferred purified active agent in hand, ^3 H-thymidine incorporation and trypan blue assays were initially performed at different dosages using LK and BW lymphoma ceil lines in order to confirm the activity of the preferred purified active agent, and to bracket the active concentration range for the preferred purified active agent. […] In addition, the time course of cell viability in the trypan blue assay was also monitored in order to best optimize subsequent assays to ensure that the cells were still viable at the time of measurement, and to ensure a nontoxic response of the cells to the agent. […] Consequently the results of the in vitro assays employing purified agent were all recorded after 24 hours. […]

LK lymphoma cells = assay: 35S-Methionine Incorporation (protein synthesis), LK; assay type: cell-based; settings: Mus musculus; for activity at 1 µg/mL: 1 μg/mL; for activity at 10 µg/mL: 10 μg/mL
Source text: 3) ^35 S-Methionine Incorporation Test as described by Sorenson, C. M., Barry, M. A., Eastman, A. J. Natl. Canc. Inst. 1990, 82, 749. The results are expressed as percent ^35 S-methionine incorporation relative to an untreated control:
[% ^35 S-methionine incorporation]=[cpm agent treated cells]/[cpm
where cpm=counts per minute. Treatments resulting in [% ^35 S-methionine incorporation] of <50% are considered active.
The ^35 S-methionine incorporation test therefore measures protein synthesis. Activity in this bioassay could arise from inhibition of transcription and/or translation.
In this test, BW and LK lymphoma cells were treated with the preferred purified active agent at 1 μg/mL and 10 μg/mL for comparison with an untreated control. The treated cells were split into two groups, one of which was thoroughly washed to remove the preferred purified active agent prior to incubation with ^35 S-methionine.

P815 cells (mastocytoma) = assay: 3H-Thymidine Incorporation, P815; assay type: cell-based; settings: Mus musculus, read-out: 3H-Thymidine Incorporation (DNA Synthesis) Inhibition (%)
Source text: as §1, §2, §3, §4

[11] = tested on: RDM-4 cells (type T lymphoma); assay: 3H-Thymidine Incorporation, RDM-4; assay type: cell-based; settings: Mus musculus, read-out: 3H-Thymidine Incorporation (DNA Synthesis) Inhibition (%)
Source text: as §1, §2, §3, §4, §5

CC1=C2C(=O)C=C(CO)[C@@H]2[C@H]2OC(=O)[C@@H](C)[C@@H]2[C@@H](O)C1 [11β,13-dihydrolactucin, 3,6-dimethyl-4-hydroxy-9-hydroxymethyl-3,3a,4,5,9a,9b-hexahydroazuleno[4,5-b]furan-2,7-dione]
inhibition at 0.1 µg/mL ([1]; 0.1 μg/mL): 100% | inhibition at 0.5 µg/mL ([1]; 0.5 μg/mL): 50% | inhibition at 1 µg/mL ([1]; 1.0 μg/mL): 5% | inhibition at 10 µg/mL ([1]; 10 μg/mL): 1% | inhibition at 0.1 µg/mL ([2]; 0.1 μg/mL): 100% | inhibition at 0.5 µg/mL ([2]; 0.5 μg/mL): 100% | inhibition at 1 µg/mL ([2]; 1.0 μg/mL): 80% | inhibition at 10 µg/mL ([2]; 10 μg/mL): 60% | Number of Metastases (mean ± S.D.) [3]: 0.33 ± 0.33 | viability at 0.1 µg/mL [4]: 100% | viability at 0.5 µg/mL [4]: 100% | viability at 1 µg/mL [4]: 100% | viability at 10 µg/mL [4]: 100% | viability at 0.1 µg/mL [5]: 100% | viability at 0.5 µg/mL [5]: 100% | viability at 1 µg/mL [5]: 100% | viability at 10 µg/mL [5]: 90% | inhibition at 0.1 µg/mL (C7 cloned T-cells [6]; 0.1 μg/mL): 100% | inhibition at 0.5 µg/mL (C7 cloned T-cells [6]; 0.5 μg/mL): 100% | inhibition at 1 µg/mL (C7 cloned T-cells [6]; 1.0 μg/mL): 100% | inhibition at 10 µg/mL (C7 cloned T-cells [6]; 10 μg/mL): 75% | viability at 0.1 µg/mL [7]: 100% | viability at 0.5 µg/mL [7]: 100% | viability at 1 µg/mL [7]: 100% | viability at 10 µg/mL [7]: 100% | viability at 0.1 µg/mL [8]: 100% | viability at 0.5 µg/mL [8]: 100% | viability at 1 µg/mL [8]: 100% | viability at 10 µg/mL [8]: 100% | viability at 0.1 µg/mL (C7 cloned T-cells [9]): 100% | viability at 0.5 µg/mL (C7 cloned T-cells [9]): 100% | viability at 1 µg/mL (C7 cloned T-cells [9]): 100% | viability at 10 µg/mL (C7 cloned T-cells [9]): 90% | ED50, 3H-thymidine incorporation [10]: micromolar range | activity at 1 µg/mL (LK lymphoma cells; LK (washed)): 100% | activity at 10 µg/mL (LK lymphoma cells; LK (washed)): 100% | activity at 1 µg/mL (LK lymphoma cells; LK, unwashed): 50% | activity at 10 µg/mL (LK lymphoma cells; LK, unwashed): 10% | inhibition at 0.1 µg/mL (P815 cells (mastocytoma); 0.1 μg/mL): 100% | inhibition at 0.5 µg/mL (P815 cells (mastocytoma); 0.5 μg/mL): 100% | inhibition at 1 µg/mL (P815 cells (mastocytoma); 1.0 μg/mL): 50% | inhibition at 10 µg/mL (P815 cells (mastocytoma); 10 μg/mL): 36% | inhibition at 0.1 µg/mL ([11]; 0.1 μg/mL): 100% | inhibition at 0.5 µg/mL ([11]; 0.5 μg/mL): 100% | inhibition at 1 µg/mL ([11]; 1.0 μg/mL): 80% | inhibition at 10 µg/mL ([11]; 10 μg/mL): 60%
